Test [1] has as its system influenza virus A/Weiss/43 (H1N1). Description: Influenza virus cytopathic effect (CPE) experiment in MDCK cells. It is filed as cell-based. Particulars: unidentified influenza virus, H1N1, 120 h, 5 days incubation, CCK8. (In general: Damage to the host cells serves as the signal in cytopathic effect assays.)
The target in another test is DHODH enzyme (Homo sapiens, UniProt Q02127). Description: DHODH enzyme inhibitory activity in vitro (resazurin fluorescence). Format: biochemical. Particulars: 5 nM DHODH, 15 μM L-DHO, 80 μM Resazurin. An excerpt:
The DHODH inhibitory activity of the compounds was detected by the following experimental method, and the experimental results are as shown in Table 1.
DHODH uses flavin mononucleotide FMN to catalyze the oxidation of dihydrooratic acid DHO to produce oratic acid, while the re-oxidation of FMN requires the participation of coenzyme CoQ. In the experiment of detecting the DHODH enzyme activity, CoQ was replaced by Resazurin dye as the final electron acceptor in the enzyme activity reaction. Resazurin solution is blue, and the resorufin generated after reduction has red fluorescence, and the fluorescence signal can be detected under the 535 nm of excitation wavelength and the 590 nm of emission wavelength. The components of the reaction buffer used in the experiment were 100 mM Hepes pH 7.0, 150 mM NaCl, 0.3% CHAPS, 0.5 mg/mL BSA, 0.1 μM FMN and 1% DMSO. The final concentration of DHODH enzyme in the reaction system was 5 nM, and the final concentration of substrate L-DHO was 15 μM, the final concentration of indicator Resazurin was 80 μM. The components of the reaction stop buffer were 100 mM Hepes pH 7.0 and 5 mM Orotate. The specific method was as follows: 2-fold final concentration of the DHODH enzyme solution was mixed with the compound, incubated at room temperature for 20 min, 2-fold final concentration of the substrate mixture solution of L-DHO and resazurin was added and reacted, incubated at room temperature away from light for 45 min. Then the reaction was stopped by adding 2-fold final concentration of the reaction stop buffer to the reaction system, and incubated at room temperature for 10 min, the fluorescence signal of the reaction system was detected with EnVision under the condition of Ex/Em=535/590 nm.
In general terms: Alamar Blue is a resazurin reagent that responds to reducing activity.

Consider 14 compounds from US12606540B2, “Triazolone compound” (MEDSHINE DISCOVERY INC., priority 2020, dated 2026).

SMILES strings stand for the structures.

DHODH enzyme, sequence (Q02127 whole entry): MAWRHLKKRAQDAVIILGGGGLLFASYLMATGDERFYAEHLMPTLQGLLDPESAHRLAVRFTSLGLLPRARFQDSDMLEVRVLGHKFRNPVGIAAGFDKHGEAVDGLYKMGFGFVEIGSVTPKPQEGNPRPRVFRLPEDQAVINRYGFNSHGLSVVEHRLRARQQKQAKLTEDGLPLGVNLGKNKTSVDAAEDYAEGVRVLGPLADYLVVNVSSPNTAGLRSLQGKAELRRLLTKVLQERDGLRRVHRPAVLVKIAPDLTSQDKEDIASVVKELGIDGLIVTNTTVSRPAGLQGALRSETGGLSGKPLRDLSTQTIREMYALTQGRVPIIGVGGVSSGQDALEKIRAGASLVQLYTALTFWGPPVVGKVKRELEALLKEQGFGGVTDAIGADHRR

For the compound `CCn1c(CO)nn(-c2cc(O[C@@H](C)C(F)(F)F)c(/C(F)=C/c3c(F)cccc3Cl)cc2F)c1=O` [Compound 1], the 50% effective concentration (EC50) (as a rule, the concentration needed to bring the measured effect to its halfway point) in test [1] was below 1 nM. Half-maximal inhibition against DHODH enzyme (IC50) required 0.71 nM. For `CCn1c(CO)nn(-c2cc(O[C@@H](C)C(F)(F)F)c(/C(F)=C/c3c(F)cncc3Cl)cc2F)c1=O` [Compound 2] the same measures were 20 nM and 3.9 nM.

For the compound `CCn1c(C(=O)O)nn(-c2cc(O[C@@H](C)C(F)(F)F)c(/C(F)=C/c3c(F)cncc3Cl)cc2F)c1=O` [Compound 21], the IC50 – broadly, the concentration at which inhibition is half-maximal – against DHODH enzyme turned out to be 9 nM. This lies in the single-digit nanomolar range. `CCn1c(CO)nn(-c2cc(OC(C)C(F)(F)F)c(C=Cc3ncccc3Cl)cc2F)c1=O` (centres unmarked) [Compound 22] had an IC50 at DHODH enzyme of 121 nM. The same measure, in the same setting: the figure for `CCn1c(CO)nn(-c2cc(O[C@@H](C)C(F)(F)F)c(/C=C/c3cccnc3OC)cc2F)c1=O` [Compound 23] is 9 nM; for `CCn1c(C(=O)O)nn(-c2cc(O[C@@H](C)C(F)(F)F)c(/C(F)=C/c3ncccc3Cl)cc2F)c1=O` [Compound 24] it is 8 nM; for `CCn1c(CO)nn(-c2cc(O[C@@H](C)C(F)(F)F)c(/C(F)=C/c3cnccc3C)cc2F)c1=O` [Compound 27] it is 1.5 nM. Same read-out and setting: the figure for `CCn1c(CO)nn(-c2cc(O[C@@H](C)C(F)(F)F)c(/C(F)=C/c3cccc(NC(=O)C4CC4)c3)cc2F)c1=O` [Compound 29] is 4.7 nM; for `CCn1c(CO)nn(-c2cc(O[C@@H](C)C(F)(F)F)c(/C(F)=C/c3ncccc3C(F)F)cc2F)c1=O` [Compound 30] it is 8 nM.

`CCn1c(CO)nn(-c2cc(O[C@@H](C)C(F)(F)F)c(/C(F)=C/c3cnccc3C(F)F)cc2F)c1=O` [Compound 32]: the IC50 against DHODH enzyme amounted to 3.9 nM.

As for `CCn1c(CO)nn(-c2cc(O[C@@H](C)C(F)(F)F)c(/C=C/c3c(F)cccc3Cl)cc2F)c1=O` [Compound 35], the EC50 in test [1] was 42 nM. The compound also had an IC50 at DHODH enzyme of 2.6 nM. `CCn1c(CO)nn(-c2cc(O[C@@H](C)C(F)(F)F)c(/C=C/c3cccnc3Cl)cc2F)c1=O` [Compound 37] came in with a half-maximal inhibitory concentration (IC50) on DHODH enzyme of 31.8 nM.

On to `CCn1c(CO)nn(-c2cc(O[C@@H](C)C(F)(F)F)c(/C=C/c3cccnc3C(F)F)cc2F)c1=O` [Compound 38], for which the midpoint of inhibition against DHODH enzyme, the IC50, lay at 26.5 nM. The same measure, in the same setting: next, `CCn1c(CO)nn(-c2cc(O[C@@H](C)C(F)(F)F)c(/C(F)=C/c3cccnc3)cc2F)c1=O` [Compound 40]: 7.3 nM.
